Reference: US5095006A, “Renin inhibitors having all retro-inverted peptide bonds” (Bayer Aktiengesellschaft, priority 1989, dated 1992)

Target: T1, endogenous renin from human plasma (Homo sapiens, UniProt P00797)
T1 construct: rate of formation of angiotensin I from endogenous angiotensinogen and renin; from tissue; host or cells: pooled human plasma (EDTA)
T1 sequence (P00797 67-406): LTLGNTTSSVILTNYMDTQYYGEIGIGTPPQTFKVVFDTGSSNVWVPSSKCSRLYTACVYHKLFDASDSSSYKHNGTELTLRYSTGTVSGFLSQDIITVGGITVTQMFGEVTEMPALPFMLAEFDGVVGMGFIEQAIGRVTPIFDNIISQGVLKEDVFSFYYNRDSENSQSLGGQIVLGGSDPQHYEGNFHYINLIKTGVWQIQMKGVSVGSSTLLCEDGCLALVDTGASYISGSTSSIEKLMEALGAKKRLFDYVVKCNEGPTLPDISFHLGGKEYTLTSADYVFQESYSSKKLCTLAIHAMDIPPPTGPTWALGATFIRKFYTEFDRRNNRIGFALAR
Assay: In vitro test: inhibition of plasma renin activity (angiotensin I formation, radioimmunoassay)
Format: biochemical
Details: pooled human plasma, 37° C., pH 5.6
Procedure: The plasma renin activity (PRA) is determined by incubation at 37° C. as the rate of formation of angiotensin I from endogenous angiotensinogen and renin. […] The angiotensin I formed per unit of time is determined by radioimmunoassay (Sorin Biomedica, Italy).
The percentage inhibition of the plasma renin activity is calculated by comparison […].

Compound | Inhibition at 0.05 mg/ml [%]
O=C(N[C@H](Cc1cnc[nH]1)C(=O)N[C@H](Cc1ccccc1)C(=O)OCc1ccccc1)C(Cc1ccccc1)C(O)CN1C(=O)c2ccccc2C1=O (stereo partly drawn) [Example 70, 4-(N-Phthalyl)amino-2-R,S-benzyl-3R,S-hydroxybutyryl-D-histidyl-D-phenylalanine benzyl ester] | 100
O=C(O)[C@@H](Cc1ccccc1)NC(=O)[C@@H](Cc1c[nH]cn1)NC(=O)[C@H](Cc1ccccc1)[C@@H](O)CN1C(=O)c2ccccc2C1=O [Example 71, 4-(N-Phthalyl)amino-2-R,S-benzyl-3R,S-hydroxybutyryl-D-histidyl-D-phenylalanine] | 92
O=C(NC1CCCC1)[C@@H](Cc1ccccc1)NC(=O)[C@@H](Cc1c[nH]cn1)NC(=O)[C@H](Cc1ccccc1)[C@@H](O)CN1C(=O)c2ccccc2C1=O [Example 72, 4-(N-Phthalyl)amino-2-R,S-benzyl-3R,S-hydroxybutyryl-D-histidyl-D-phenylalanine(cyclopentyl)amide] | 100
CC(C)(C)OC(=O)N(Cc1ccccc1)CC(O)C(Cc1ccccc1)C(=O)N[C@H](Cc1c[nH]cn1)C(=O)O (stereo partly drawn) [Example 74, 4-(N-tert.-Butoxycarbonyl-N-benzyl)amino-2-R,S-benzyl-3-R,S-hydroxybutyryl-D-histidine] | 93
CC(C)(C)OC(=O)N(Cc1ccccc1)CC(O)C(Cc1ccccc1)C(=O)N[C@H](Cc1cnc[nH]1)C(=O)N[C@H](Cc1ccccc1)C(=O)O (stereo partly drawn) [Example 76, 4-(N-tert.-Butoxycarbonyl-N-benzyl)amino-2-R,S-benzyl-3-R,S-hydroxybutyryl-D-histidyl-D-phenylalanine] | 78
CC(C)(C)OC(=O)N(Cc1ccccc1)C[C@H](O)[C@@H](Cc1ccccc1)C(=O)N[C@H](Cc1c[nH]cn1)C(=O)N[C@H](Cc1ccccc1)C(=O)N1CCOCC1 [Example 77, 4-(N-tert.-Butoxycarbonyl-N-benzyl)amino-2-R,S-benzyl-3-R,S-hydroxybutyryl-D-histidyl-D-phenylalanine-(N-morpholino)amide] | 100
CC(C)CNC(=O)[C@@H](Cc1ccccc1)NC(=O)[C@@H](Cc1c[nH]cn1)NC(=O)[C@H](Cc1ccccc1)[C@@H](O)CNC(=O)OC(C)(C)C [Example 78, (N-tert.-Butoxycarbonyl)amino-2-R,S-benzyl-3-R,S-hydroxybutyryl-D-histidyl-D-phenylalanine-(2-methylpropyl)amide] | 100
CC(C)CNC(=O)[C@@H](Cc1ccccc1)NC(=O)[C@@H](Cc1cnc[nH]1)NC(=O)C(Cc1ccccc1)C(O)CNC(=O)c1ccccc1C(=O)O (stereo partly drawn) [Example 90, 4-[N-(2-Carboxy)benzoyl]amino-2-R,S-benzyl-3-R,S-hydroxybutyryl-D-histidyl-D-phenylalanine-(2-methyl) propylamide] | 63
COC(=O)[C@@H](Cc1ccccc1)NC(=O)[C@@H](Cc1cnc[nH]1)NC(=O)C(Cc1ccccc1)C(O)CN(Cc1ccccc1)C(=O)Cc1cccnc1 (stereo partly drawn) [Example 103, 4-[N-Benzyl-N-(3-pyridyl)acetyl]amino-2-R,S-benzyl-3-R,S-hydroxybutyryl-D-histidyl-D-phenylalanine methyl ester] | 88
